Measurements published in the NIST ThermoML archive (doi:10.1016/j.fluid.2018.08.012).

Test: mn = molality of the nth substance listed, in mol/kg
Conditions: Fluid (supercritical or subcritical phases), Vibrating tube method, m1 = 0.2322

S=C=S [carbon disulfide] + O=C=O
Conditions | mass density [kg/m3]
324.09 K, 5020 kPa | 107.03
324.09 K, 5037.7 kPa | 107.14
324.09 K, 7541 kPa | 199.79
324.09 K, 7551.5 kPa | 199.54
324.09 K, 10053 kPa | 403.53
324.09 K, 10060 kPa | 402.21
324.09 K, 12570 kPa | 624.02
324.09 K, 12604 kPa | 625.07
324.09 K, 15125 kPa | 707.48
324.09 K, 15142 kPa | 707.56
324.09 K, 17653 kPa | 755.16
324.09 K, 17669 kPa | 755.21
324.09 K, 20182 kPa | 789.28
324.09 K, 20197 kPa | 789.34
324.09 K, 22699 kPa | 815.92
324.09 K, 22712 kPa | 815.94
324.09 K, 25212 kPa | 837.95
324.09 K, 25226 kPa | 837.97
324.09 K, 27728 kPa | 856.85
324.09 K, 27741 kPa | 856.86
324.09 K, 30237 kPa | 873.42
324.09 K, 30252 kPa | 873.43
324.09 K, 32734 kPa | 888.17
324.09 K, 32750 kPa | 888.17
324.09 K, 35219 kPa | 901.47
324.09 K, 35227 kPa | 901.44
349.43 K, 5049.6 kPa | 92.26
349.43 K, 5059.9 kPa | 92.17
349.43 K, 7561.3 kPa | 154.46
349.43 K, 7565.2 kPa | 155.4
349.43 K, 10072 kPa | 237.91
349.43 K, 10079 kPa | 236.77
349.43 K, 12659 kPa | 351.82
349.43 K, 12682 kPa | 350.77
349.43 K, 15194 kPa | 474.54
349.43 K, 15210 kPa | 471.73
349.43 K, 17724 kPa | 568.76
349.43 K, 17738 kPa | 565.77
349.43 K, 20245 kPa | 633.49
349.43 K, 20260 kPa | 630.9
349.43 K, 22769 kPa | 680.4
349.43 K, 22783 kPa | 678.14
349.43 K, 25280 kPa | 716.41
349.43 K, 25300 kPa | 714.54
349.43 K, 27790 kPa | 745.77
349.43 K, 27805 kPa | 744.03
349.43 K, 30301 kPa | 770.42
349.43 K, 30313 kPa | 768.82
349.43 K, 32807 kPa | 791.68
